Test results from patent US9468208B2, “Disease control with tick phospholipase A2” (The United States of America, as represented by the …, priority 2009, dated 2016).

Columns and labels:
[1] = system: B. burgdorferi; test: Borreliacidal assay of saliva alone versus saliva plus phospholipase A2 inhibitor OPC; type: cell-based, Borrelia burgdorferi; conditions: 24 hrs, A. americanum saliva plus OPC 5-40 μM; culture controls 79
Protocol: Gel filtration fractionation of A. americanum saliva produces individual fractions with borreliacidal activity. Saliva is fractionated into 11 molecular weight pools by gel filtration and then tested by a borreliacidal assay as described by Zeidner, et al. 2009. Briefly, A. americanum saliva is size fractionated on a Superdex 200 column run with 25 mM NaCl dissolved in 5 mM HEPES (pH 7.6) at a flow rate of 0.5 ml per minute. The separation is monitored at […]. Fractions are collected at 1 minute intervals into siliconized eppendorf tubes. Each collected fraction is subsequently concentrated to 100 μl using a SpeedVac. 50 μl aliquots of the fractions are pooled according to the major molecular weight peaks at between 2 and 10 fractions per pool. Each pool is subsequently concentrated to 50 μl using Micron-3K filters (Millipore, Billerica, Mass.).
Inhibition of A. americanum borreliacidal activity using oleyloxyethyl phosphorylcholine (OPC) identifies phospholipase A2 as an active component of A. americanum saliva. The borreliacidal assay of Example 6 is performed comparing saliva alone with saliva plus the phospholipase A2 inhibitor OPC. […]

[2] = system: B31 B. burgdorferi isolates; test: B. burgdorferi viability, live/dead BacLight staining counts; type: cell-based, Borrelia burgdorferi; conditions: 35° C., BSK-H, starting 155 live spirochetes per field
Protocol: Evaluation of PLA2 protein regulation of B. burgdorferi viability. Analyses of PLA2 protein is performed essentially as described by Ledin, K. E., et al., Med. Vet. Entomol., 2005; 19(1):90-95, the contents of which are incorporated herein by reference. Frozen stocks of low-passage B31 B. burgdorferi isolates (Shelter Island, N.Y.) are reconstituted in BSK-H culture medium and maintained at 35° C. to log phase (Piesman, 1993). Spirochete cultures are diluted with BSK-H to a density of 4.7×10^7 viable spirochetes per mL as counted in a Petroff-Hauser chamber under dark-field microscopy, and distributed in 15 μL aliquots into 0.7 mL tubes for a total of 7.05×10^5 spirochetes per tube. A mean starting concentration of 155 live spirochetes per field is assessed prior to the addition of specific treatments. Each 15 μL aliquot of spirochetes in BSK-His treated with either 15 μL of sterile PBS, 15 μL of 1.33 mg/mL pilocarpine (based on the mid-range of pilocarpine found in previous analysis of tick saliva, (Ribeiro et al., 2004) in sterile PBS, or 15 μL of tick saliva, and incubated at 35° C. 10 μL samples taken from each of 10 prepared cultures and assessed for spirochete survival at 0, 24 and 48 h. Time points for spirochete survival assessment are chosen based on previous observations of post-feeding decreases in spirochete-positive ticks (Ryder et al., 1992). […]

## CCCCCCCC/C=C\CCCCCCCCOCCOP(=O)([O-])OCC[N+](C)(C)C [OPC, oleyloxyethyl phosphorylcholine]
[1]
  percent control live spirochetes: 76-78%

## CC[C@@H]1C(=O)OC[C@@H]1Cc1cncn1C [pilocarpine]
[2]; 24 h post-exposure
  average number of live spirochetes (mean): 82.1 counts per 10 high powered (10
[2]; 48 h post-exposure
  average number of live spirochetes (mean): 58.2 counts per 10 high powered (10
